Source: US20070135488A1, “Amlodipine nicotinate and process for the preparation thereof” (priority 2002, published 2007)
Read-outs that look alike come from different tables or passages of the source.

Key:
[1] = Solubility measurement (water solubility and pH at saturation); assay type: physicochemical; details: distilled water, room temperature; for solubility: ultrasonic waves, maximal solubilized amount
Experimental: Water solubilities were measured for amlodipine besylate prepared in accordance with U.S. Pat. No. 4,879,303 and amlodipine nicotinate obtained in Example 1. By using 50 ml of distilled water and ultrasonic waves, maximal solubilized amounts were measured at a room temperature and pHs at saturation were measured using Fischer Scientific Accument (PH meter 15).

[2] = Chemical stability (stability test under stress condition); assay type: physicochemical; details: tablets in sealed vials, 50° C., 60% relative humidity, three weeks, TLC
Experimental: In order to assess the chemical stability, amlodipine besylate and amlodipine nicotinate were blended in a powder vehicle and formed into tablets. The vehicle for tablets comprised microcrystalline cellulose and anhydrous dibasic calcium phosphate in 50:50. The tablets were then stored in sealed vials at 50° C. and at 60% relative humidity for three weeks.
FIGS. 4A and 4B show H-NMR charts of amlodipine besylate before and after the stability test, respectively, and FIGS. 5A and 5B show H-NMR charts of amlodipine nicotinate before and after the stability test, respectively. The peaks on NMR of amlodipine besylate are as follows: […]

Photostability = assay type: physicochemical; details: 25-30° C., 2 weeks, incandescent lamp (220V, 100 W) 30 cm above
Experimental: 1.0 g of amlodipine besylate prepared in accordance with U.S. Pat. No. 4,879,303 and 1.0 g of amlodipine nicotinate dihydrate obtained in Example 1, which were placed in glass schales (100×20 mm), were exposed at 25-30° C. for 2 weeks under an incandescent lamp (220V, 100 W) that was placed at 30 cm above the samples. […] FIGS. 6A and 6B show H-NMR charts of amlodipine besylate before and after the photostability test, respectively. The peaks on NMR of amlodipine besylate are as follows: […]

Hygroscopicity test = assay type: physicochemical; details: 60% relative humidity, 50° C., 14 days
Experimental: 1.0 g of amlodipine besylate prepared in accordance with U.S. Pat. No. 4,879,303 and 1.0 g of amlodipine nicotinate dihydrate obtained in Example 1 were exposed to 60% relative humidity at 50° C. for 14 days.

[3] = Processability test (stickiness to tablet punch); assay type: physicochemical; details: amount adhering to tablet punch; for Stickiness: Amlodipine(μg)/cm^2 (tablet): average from slope over runs of 50-300 tablets
Experimental: Using a conventional tablet making machinery, fifty tablets containing calcium sulphate dihydrate, microcrystalline cellulose and amlodipine nicotinate dihydrate (47.5:47.5:5) were produced. The material adhering to the tablet punch was then extracted using methanol and the amount was measured spectrometrically. This procedure was then repeated for runs of 100, 150, […], 250 and 300 tablets. After each run the amount of material adhering to the tablet punch was measured in the same process as above. The values were plotted and an average value was calculated from the slope of the line produced. The same procedure was then repeated for amlodipine besylate. The amount of amlodipine measured as adhering to the tablet punch is shown in Table 2 for amlodipine nicotinate dihydrate with relative to amlodipine besylate.

[4] = tested on: spontaneously hypertensive rats (SHRs); test: In vivo anti-hypertensive activity, systolic blood pressure by tail-cuff method; design: species or system rat; details: SHR; for ED20 (amount necessary for 20% decrease in the blood pressure) / Intensity (reverse ratio of ED20 values relative to amlodipine besylate) / Maximal anti-hypertensive effect (change of systolic blood pressure) / Intensity (maximal effect of amlodipine nicotinate to maximal effect of amlodipine besylate): oral; for Maximal anti-hypertensive effect (change of systolic blood pressure): mean % ± S.E.M.
Experimental: Cardiovascular effects, i.e., in vivo anti-hypertensive activities, were measured for amlodipine besylate prepared in accordance with U.S. Pat. No. 4,879,303 and amlodipine nicotinate prepared in Example 1, using spontaneously hypertensive rats (SHRs), by Korea Research Institute of Chemical Technology (Screening Center, #100, Jang-dong, Yuseong-gu, Daejeon).
Male SHRs (Charles Rever Co., Japan) aged 13-14 weeks were used. Before evaluation, the SHRs were accustomed in a clean breeding chamber under conditions of a temperature of 22.5±1° C., a relative humidity of 55±5% and a lighting time of 12 hour intervals.
The SHRs having a systolic blood pressure over 170 mmHg were divided into 7 groups, i.e., Test Groups 1 to 3 (for amlodipine besylate), Test Groups 4 to 6 (for amlodipine nicotinate) and a Control Group. Each Test Group and Control Group consisted of 6-8 SHRs (n=6-8).
The test compounds were dissolved in distilled water to prepare test solutions immediately prior to administration. The test solutions of amlodipine besylate and amlodipine nicotinate were prepared by dissolving 1, 3, and 10 mg/kg in distilled water (0.5 ml/100 g rat), respectively, and then administered orally to each Test Group. The vehicle (distilled water) was administered to Control Group.
The systolic blood pressure was measured with Multichannel 8000 (TSE Co., Germany), using a tail-cuff method. That is, the systolic blood pressures of a tail artery of each rat were measured before the administration of the test solutions and after 2, 4, 6, 8, 10, and 24 hours from the administration thereof. In order to facilitate the measurement of blood pressures, the test animals of each Group underwent warming at 37° C. for about 10 minutes before the measurements.
The results of the foregoing test were expressed by a mean percentage and standard error (mean %±S.E.M.). Statistical analysis of the test results were conducted by an unpaired t-test and ANOVA (one-way analysis of variance) with Sigma Stat program (Jandel Co., USA). The secondary evaluations were conducted by a Dunnett's multiple comparison test.

[5] = 1 mg/kg, listed as Nicotinate salt, dihydrate
[6] = listed as amlodipine nicotinate, dihydrate

Question: What does the source list for CCOC(=O)C1=C(COCCN)NC(C)=C(C(=O)OC)C1c1ccccc1Cl (centres unmarked) [Amlodipine besylate, amlodipine besylate, reference compound]?
Answer: pH at saturation [1]: 6.6; solubility ([1]; water, thermodynamic from solid, read-out: Solubility): 4600 µg/mL; breakdown products after stability test [2]: breakdown products; color change after photostability test (Photostability): discolored to yellow; hygroscopicity (state after exposure) (Hygroscopicity test): remained anhydrous; Stickiness relative to besylate [3]: 100.0%; Stickiness: Amlodipine(μg)/cm^2 (tablet) [3]: 1.20 μg/cm^2 (tablet); ED20 (amount necessary for 20% decrease in the blood pressure) [4]: 2.48 ± 0.46 mg/kg; Intensity (reverse ratio of ED20 values relative to amlodipine besylate) [4]: 1.00; Maximal anti-hypertensive effect (change of systolic blood pressure) ([4]; 1 mg/kg, listed as Besylate salt): −7.0 ± 1.66%; Maximal anti-hypertensive effect (change of systolic blood pressure) ([4]; 3 mg/kg, listed as Besylate salt): −25.0 ± 1.98%; Maximal anti-hypertensive effect (change of systolic blood pressure) ([4]; 10 mg/kg, listed as Besylate salt): −38.7 ± 2.18%; effect on blood pressure ([4]; oral, 1, 3 and 10 mg/kg): dose-dependently reduced blood pressures; ED20 (amount necessary for 20% decrease in the blood pressure) ([4]; listed as amlodipine besylate): 2.48 ± 0.46 mg/kg

Question: For CCOC(=O)C1=C(COCCN)NC(C)=C(C(=O)OC)C1c1ccccc1Cl (centres unmarked) [Amlodipine nicotinate, amlodipine nicotinate dihydrate], which pH at saturation ([1]; dihydrate) is on record?
Answer: The pH at saturation was 7.2.

Question: And the solubility ([1]; dihydrate)?
Answer: Its solubility is 6800 µg/mL.

Question: What about the “breakdown products after stability test” value ([2]; dihydrate) of the same molecule?
Answer: The value was “no breakdown product”.

Question: And the “color change after photostability test” value (Photostability; dihydrate)?
Answer: The value was “no color change”.

Question: And the “hygroscopicity (state after exposure)” value (Hygroscopicity test; dihydrate)?
Answer: Its value is “remained intact”.

Question: What about the “Stickiness: Amlodipine(μg)/cm^2 (tablet)” value ([3]; dihydrate) of the same molecule?
Answer: Its value is 0.44 μg/cm^2 (tablet).

Question: What about the “Stickiness relative to besylate” value ([3]; dihydrate) of the same molecule?
Answer: The value was 36.7%.

Question: And the “Maximal anti-hypertensive effect (change of systolic blood pressure)” value [4, 5]?
Answer: Its value is −10.20 ± 2.71%.

Question: What about the “Intensity (maximal effect of amlodipine nicotinate to maximal effect of amlodipine besylate)” value ([4]; 1 mg/kg, dihydrate) of the same molecule?
Answer: Its value is “about 1.46”.

Question: And the “Intensity (maximal effect of amlodipine nicotinate to maximal effect of amlodipine besylate)” value [4, 5]?
Answer: The value was 1.46.

Question: And the “Intensity (maximal effect of amlodipine nicotinate to maximal effect of amlodipine besylate)” value ([4]; 3 mg/kg)?
Answer: Its value is 1.07.

Question: And the “Maximal anti-hypertensive effect (change of systolic blood pressure)” value ([4]; 3 mg/kg, listed as Nicotinate salt, dihydrate)?
Answer: The value was −26.8 ± 3.22%.

Question: What about the “Intensity (maximal effect of amlodipine nicotinate to maximal effect of amlodipine besylate)” value ([4]; 10 mg/kg) of the same molecule?
Answer: The value was 1.06.

Question: And the “Maximal anti-hypertensive effect (change of systolic blood pressure)” value ([4]; 10 mg/kg, listed as Nicotinate salt, dihydrate)?
Answer: Its value is −40.9 ± 2.08%.

Question: What about the “ED20 (amount necessary for 20% decrease in the blood pressure)” value ([4]; dihydrate) of the same molecule?
Answer: Its value is 2.19 ± 0.57 mg/kg.

Question: What about the “Intensity (reverse ratio of ED20 values relative to amlodipine besylate)” value ([4]; dihydrate) of the same molecule?
Answer: The value was 1.13.

Question: What about the “ED20 (amount necessary for 20% decrease in the blood pressure)” value [4, 6] of the same molecule?
Answer: Its value is 2.19 ± 0.57 mg/kg.

Question: What about the “Intensity (reverse ratio of ED20 values relative to amlodipine besylate)” value [4, 6] of the same molecule?
Answer: Its value is “about 1.13”.
